Values of other authors in patent US4610817A, “N-acyl derivatives of peptides, their preparation and their use in the treatment of disorders, and agents for this purpose” (BASF Aktiengesellschaft, priority 1983, dated 1986).
Where a SMILES comes first, the peptide text is derived from it.

System: tremor, rigor and akinesia in Parkinson patients
Settings: alone or in combination with L-dopa

In the case of `CC(C)C[C@H](NC(=O)[C@@H]1CCCN1)C(=O)NCC(N)=O` [MIF, L-Pro-L-Leu-Gly-NH2] (H-Pro-Leu-Gly-NH2), the “clinical effect on Parkinson symptoms” value is listed as “advantageous effect on tremor, rigor and akinesia”.
